Source: patent publication US20250136581A1, “SUBSTITUTED TRIAZOLE DERIVATIVE, PREPARATION METHOD THEREFOR, PHARMACEUTICAL COMPOSITION THEREOF, AND USE THEREOF” (SHANGHAI SIMR BIOTECHNOLOGY CO., LTD., priority 2021, published 2025)

What was measured:
[1] = biological target: human α5β3γ2 receptors (α5-GABAA receptor) (Homo sapiens (Human), UniProt P18507+P31644); assay: 3H-flunitrazepam competition binding, human α5β3γ2 GABAA receptor; conditions: HEK293 cell membranes, 1 nM 3H-flunitrazepam; read-out: α5-GABAAR Ki
Method in brief: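 HEK293 membranes stably expressing each human receptor subtype ([…]) competed against 1 nM 3H-flunitrazepam in Tris buffer, 1 h at room temperature; flumazenil defined the low-signal control. Eight-point 4-fold test-compound dilutions; GF/C filtration and scintillation counting gave IC50 by curve fitting, converted to Ki.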

[2] = biological target: α5-GABAA receptor (α5, β3, γ2 subunits) (Homo sapiens (Human), UniProt P18507+P31644); assay: Whole cell patch clamp, inverse agonist efficacy in HEK293 cells expressing α5-GABAA receptor; type: cell-based; conditions: HEK293, drug 100 nM, GABA 0.05 μM, −60 mV; read-out: Compound inverse agonist efficacy %
Text: The inventors used electrophysiological methods to determine the inverse agonist efficacy of the drugs to be tested on the α5-GABAA receptor. The detailed methods are as follows:
Different subunits of the GABAA receptor were co-expressed in the HEK293 cell line to construct a fully functional GABAA receptor. The α, β, and γ subunits are essential to form a complete functional GABAA receptor. In this example, the present disclosure had established the following cell model: α5 subunit (see GenBank Accession No.: NM_000810.3 for protein sequences), β3 subunit (see GenBank Accession No.: NM_000814.5 for protein sequences), and γ2 subunit (see GenBank Accession No.: NM_000816.3 for protein sequences) were co-expressed in the HEK293 cell line, followed by screening the monoclonal stably transfected cell line. This cell line expressed a fully functional α5-GABAA receptor.
The monoclonal stably transfected HEK293 cell line expressing α5-GABAA receptor were cultured in 10 cm culture dishes and passaged when the cells grew to 80% to 90% confluent. During passaging, the culture medium was aspirated first, then 3 mL of DPBS phosphate buffer salt (Gibco™) was added to the culture dishes, and the culture dishes were shaken slightly, and DPBS was aspirated. 1 mL of trypsin (TrypLE Express, Gibco™) was added thereto, and the cells were digested at 37° C. for 1-2 minutes. Then 3 mL of complete medium (DMEM+10% FBS (Gibco™)) was added and the cells at the bottom of the culture dishes were dispersed. The cell suspension was transferred to a 15 mL centrifugal tube (Corning) and then centrifuged at 200 g for 3 minutes. The supernatant was discarded, 4 mL of complete medium was added, and the cells were gently blown and resuspended for use. If cell passaging was performed, the cell suspension was diluted at a ratio of 1:5 or 1:10. If cells for electrophysiological detection were prepared, the cell suspension was diluted in a ratio of 1:12, then added into a 24-well dish (Corning™) in which glass slides were placed and pretreated with Poly-D-Lysine, and the experiment was carried out after the cells adhered to the wall. The cells used for electrophysiology was cultured no more than 48 hours.
Drug concentration setting: The final drug concentration used in drug screening was 100 nM, and the GABA concentration was 0.05 μM. The whole cell patch clamp technique was used in electrophysiological assays, which could refer to the literature (I. Lecker, Y. Yin, D. S. Wang and B. A. Orser, British Journal of Anaesthesia, 2013, 110 (Si), i73-i81). The compositions of the extracellular solution for electrophysiology assay were as follows: 150 mM NaCl, 5 mM KCl, 2.5 mM CaCl2, 1 mM MgCl2, 10 mM HEPES, and 10 mM glucose (pH 7.4); the formulation of the electrode internal fluid for electrophysiology use was as follows: 140 mM CsCl, 11 mM EGTA, 10 mM HEPES, 2 mM CaCl2, 1 mM MgCl2, 4 mM MgATP, and 2 mM TEA (pH 7.3). The signal acquisition used an EPC-10 amplifier and the PatchMaster software (HEKA) or Axon700B amplifier and Clampex software (AXON). The recording electrode was pulled from borosilicate glass, and the electrode resistance was 4 to 6 MQ. The ALA-VC-8PG™ system was used for drug application. Single cell that grew independently was selected for recording. During recording, the cell membrane potential was clamped at −60 mV. During experiment, an extracellular solution was applied outside the cells for about 20 seconds. When the baseline reached to a stable state, the extracellular solution was switched to the GABA solution to induce an inward current. After about 20 to 40 seconds until the current was stable, the solution was switched to a corresponding drug solution to detect the effect of the drug. At last, the solution was switched to the extracellular solution, and the experiment was terminated when the baseline returned to the level before drug application. […]

| SMILES | Ki [1] [nM] | inhibition at 0.1 µM [2] [%] |
| --- | --- | --- |
| Cc1nnn(-c2ccc(C(F)F)cc2)c1COc1ccc(N2CC[C@H]3CCNC(=O)[C@@H]3C2)nn1 (relative stereo) [Example 124, trans-7-(6-((1-(4-(Difluoromethyl)phenyl)-4-methyl-1H-1,2,3-triazol-5-yl)methoxy)pyridazin-3-yl)octahydro-2,7-naphthyridin-1(2H)-one] | 2.4 | 48.4 |
| Cc1nnn(-c2ccc(C(F)F)cc2)c1COc1ccc(N2CCN3CC(C(C)(C)C)NC(=O)[C@@H]3C2)nn1 (single isomer, unassigned) [Example 201] | 1.74 | 53.9 |
| Cc1nnn(-c2ccc(C(F)F)cc2)c1COc1ccc(N2CCN(CCN)C(=O)C2)nn1 [Example 67, 1-(2-Aminoethyl)-4-(6-((1-(4-(difluoromethyl)phenyl)-4-methyl-1H-1,2,3-triazol-5-yl)methoxy)pyridazin-3-yl)piperazin-2-one] | – | 50.1 |
| Cc1nnn(-c2ccc(C(F)F)cc2)c1COc1ccc(N2CC(=O)N3CC4CC3(C4)C2)nn1 [Example 179, 2-(6-((1-(4-(Difluoromethyl)phenyl)-4-methyl-1H-1,2,3-triazol-5-yl)methoxy)pyridazin-3-yl)tetrahydro-6H-7,8a-methanopyrrolo[1,2-a]pyrazin-4(1H)-one] | 6.33 | – |
| O=C1CN(c2ccc(OCc3c(Cl)nnn3-c3ccc(C(F)F)cc3)nn2)C[C@@H]2COCCN12 [Example 182, (R)-8-(6-((4-Chloro-1-(4-(difluoromethyl)phenyl)-1H-1,2,3-triazol-5-yl)methoxy)pyridazin-3-yl)hexahydropyrazino[2,1-c][1,4]oxazin-6(1H)-one] | 0.71 | – |
| O=C1CN(c2ccc(OCc3c(Cl)nnn3-c3ccc(C(F)F)cc3)nn2)C[C@H]2COCCN12 [Example 183, (S)-8-(6-((4-Chloro-1-(4-(difluoromethyl)phenyl)-1H-1,2,3-triazol-5-yl)methoxy)pyridazin-3-yl)hexahydropyrazino[2,1-c][1,4]oxazin-6(1H)-one] | 1.37 | – |
| O=C1NCCN2CCN(c3ccc(OCc4c(C(F)F)nnn4-c4ccc(C(F)F)cc4)nn3)C[C@@H]12 [Example 184, (S)-8-(6-((4-(Difluoromethyl)-1-(4-(difluoromethyl)phenyl)-1H-1,2,3-triazol-5-yl)methoxy)pyridazin-3-yl)hexahydro-2H-pyrazino[1,2-a]pyrazin-1(6H)-one] | 2.53 | – |
| O=C1CN(c2ccc(OCc3c(C(F)F)nnn3-c3ccc(C(F)F)cc3)nn2)CCN1 [Example 185, 4-(6-((4-(Difluoromethyl)-1-(4-(difluoromethyl)phenyl)-1H-1,2,3-triazol-5-yl)methoxy)pyridazin-3-yl)piperazin-2-one] | 0.96 | – |
| O=C1CN(c2ccc(OCc3c(CC4CC4)nnn3-c3ccc(C(F)F)cc3)nn2)CCN1 [Example 186] | 4.62 | – |
| O=C1NCCN2CCN(c3ccc(OCc4c(CC5CC5)nnn4-c4ccc(C(F)F)cc4)nn3)C[C@@H]12 [Example 187, (S)-8-(6-((4-(Cyclopropylmethyl)-1-(4-(difluoromethyl)phenyl)-1H-1,2,3-triazol-5-yl)methoxy)pyridazin-3-yl)hexahydro-2H-pyrazino[1,2-a]pyrazin-1(6H)-one] | 11.1 | – |
| Cc1cc(-c2nnn(-c3ccc(C(F)F)cc3)c2COc2ccc(N3CCNC(=O)C3)nn2)no1 [Example 188, 4-(6-((1-(4-(Difluoromethyl)phenyl)-4-(5-methylisoxazol-3-yl)-1H-1,2,3-triazol-5-yl)methoxy)pyridazin-3-yl)piperazin-2-one] | 40.6 | – |
| O=C1CN(c2ccc(OCc3c(Cl)nnn3-c3ccc(Cl)cc3)nn2)CCN1 [Example 190, 4-(6-((4-Chloro-1-(4-chlorophenyl)-1H-1,2,3-triazol-5-yl)methoxy)pyridazin-3-yl)piperazin-2-one] | 1.96 | – |
| O=C1CN(c2ccc(OCc3c(C(F)(F)F)nnn3-c3ccc(C(F)F)cc3)nn2)CCN1 [Example 191, 4-(6-((1-(4-(Difluoromethyl)phenyl)-4-(trifluoromethyl)-1H-1,2,3-triazol-5-yl)methoxy)pyridazin-3-yl)piperazin-2-one] | 3.27 | – |
| Cc1nnn(-c2ccc(C(F)F)cc2)c1COc1ccc(N2CCN3c4ccncc4NC(=O)[C@@H]3C2)nn1 [Example 192, (S)-8-(6-((1-(4-(Difluoromethyl)phenyl)-4-methyl-1H-1,2,3-triazol-5-yl)methoxy)pyridazin-3-yl)-7,8,9,10-tetrahydro-5H-pyrazino[1,2-a]pyrido[3,4-e]pyrazin-6(6aH)-one] | 17.4 | – |
| Cc1nnn(-c2ccc(C(F)F)cc2)c1COc1ccc(N2CCN3c4cccnc4NC(=O)[C@@H]3C2)nn1 [Example 193, (S)-3-(6-((1-(4-(difluoromethyl)phenyl)-4-methyl-1H-1,2,3-triazol-5-yl)methoxy)pyridazin-3-yl)-2,3,4,4a-tetrahydro-1H-pyrazino[1,2-a]pyrido[2,3-e]pyrazin-5(6H)-one] | 1.45 | – |
| Cc1nnn(-c2ccc(C(F)F)cc2)c1COc1ccc(N2CCN3c4ncccc4NC(=O)[C@@H]3C2)nn1 [Example 194, (S)-8-(6-((1-(4-(Difluoromethyl)phenyl)-4-methyl-1H-1,2,3-triazol-5-yl)methoxy)pyridazin-3-yl)-7,8,9,10-tetrahydro-5H-pyrazino[1,2-a]pyrido[3,2-e]pyrazin-6(6aH)-one] | 0.8 | – |
| Cc1nnn(-c2ccc(C(F)F)cc2)c1COc1ccc(N2CCN3c4nc(F)ccc4NC(=O)[C@@H]3C2)nn1 [Example 195, (S)-8-(6-((1-(4-(Difluoromethyl)phenyl)-4-methyl-1H-1,2,3-triazol-5-yl)methoxy)pyridazin-3-yl)-2-fluoro-7,8,9,10-tetrahydro-5H-pyrazino[1,2-a]pyrido[3,2-e]pyrazin-6(6aH)-one] | 0.54 | – |
| Cc1nnn(-c2ccc(C(F)F)cc2)c1COc1ccc(N2CCN3CC(c4cccc(Cl)c4)NC(=O)[C@@H]3C2)nn1 (stereo partly drawn) [Example 205, (9aS)-3-(3-Chlorophenyl)-8-(6-((1-(4-(difluoromethyl)phenyl)-4-methyl-1H-1,2,3-triazol-5-yl)methoxy)pyridazin-3-yl)hexahydro-2H-pyrazino[1,2-a]pyrazin-1(6H)-one] | 2.1 | – |
| Cc1nnn(-c2ccc(C(F)F)cc2)c1COc1nnc(N2CCN3CCNC(=O)[C@@H]3C2)c2ncccc12 [Example 206, (S)-8-(5-((1-(4-(Difluoromethyl)phenyl)-4-methyl-1H-1,2,3-triazol-5-yl)methoxy)pyrido[2,3-d]pyridazin-8-yl)hexahydro-2H-pyrazino[1,2-a]pyrazin-1(6H)-one] | 0.64 | – |
| Cc1nnn(-c2ccc(C(F)F)cc2)c1COc1ccnc(N2CCNC(=O)C2)n1 [Example 213, 4-(4-((1-(4-(Difluoromethyl)phenyl)-4-methyl-1H-1,2,3-triazol-5-yl)methoxy)pyrimidin-2-yl)piperazin-2-one] | 54.1 | – |
| O=C1CN(c2ccc(OCc3cnnn3-c3ccc(Cl)cc3)nn2)CCN1 [Example 214, 4-(6-((1-(4-Chlorophenyl)-1H-1,2,3-triazol-5-yl)methoxy)pyridazin-3-yl)piperazin-2-one] | 49.2 | – |
| Cc1nnn(-c2ccc(C(F)F)cc2)c1COc1ccc(N2CC(C(C)C)N3CCNC[C@H]3C2=O)nn1 (stereo partly drawn) [Example 215] | 36.1 | – |
